The values below come from patent publication US5556859A, “N-(4-pyrimidinyl)amide pesticides” (DowElanco, priority 1994, dated 1996).

Experiment [1] relates to two spotted spider mite (Tetranychus urticae). As to the kind of experiment: whole plant or invertebrate. The note with it: 72 h, read-out: percent mortality, TSSM.
In experiment [2] the test system is German cockroach (Blattella germanicus). As to the kind of experiment: whole plant or invertebrate. The settings on record: 240 h, read-out: percent mortality, GECR.
Experiment [3] has as its system peanut root knot nematode (Meloidogyne arenaria). Kind of experiment: whole plant or invertebrate. The settings on record: in Arachis hypogaea, read-out: percent mortality, RKN.
Experiment [4] relates to cotton aphid (Aphis gossypii). Kind of experiment: whole plant or invertebrate. The note with it: 72 h, read-out: percent mortality, CA.
The test system of experiment [5] is aster leafhopper (Macrosteles fascifrons). Kind of experiment: whole plant or invertebrate. The settings on record: 24 h, read-out: percent mortality, ALH.
For experiment [6], the system named is Southern corn rootworm (Diabrotica undecimpuctata howardi Barber). Kind of experiment: whole plant or invertebrate. The note with it: in Zea mays, soil, read-out: percent mortality, SCRW.
The test system of experiment [7] is beet armyworm (Spodoptera exiqua). As to the kind of experiment: whole plant or invertebrate. The settings on record: 144 h, read-out: percent mortality, BAW.
Experiment [8] relates to tobacco budworm (Heliothis virescens). As to the kind of experiment: Activity against tobacco budworm (TBW). Type of experiment: in vivo. The settings on record: 144 h, read-out: percent mortality, TBW. On the procedure: In conducting evaluations of insecticidal activity, each test compound was formulated as a 400 ppm solution, and this solution was then diluted with water to give lesser concentrations. The 400 ppm solution was prepared by combining 19.2 mL of 0.05% solution of Tween 20 (polyoxyethylene (20) sorbitan monolaurate) in water with a solution of 8 mg of the compound in 0.8 mL of acetone/EtOH (9/1).
Activity against tobacco budworm (Heliothis virescens) was evaluated as follows. A general purpose lepidoptera artificial diet was diluted to half strength with a 5% non nutritive agar. 8 mL of this diet material was dispensed into each one ounce diet cup. One hour prior to treatment 18 to 20 eggs were dispensed onto the diet surface. The cups were then sprayed with formulated material through a flat-fan nozzle. The test was run using concentrations of 400 ppm and 50 ppm. Treated cups were air dried prior to sealing with plastic caps. The cups were held for 6 days at room temperature. Activity was then rated based on the total number of live and dead larvae, and on the size of live larvae.

Each structure is given as a SMILES string.

One may read the mortality as the share of the test organisms that died. On to `Cc1nccc(NC(=O)Cc2ccc(Oc3ccc(Cl)cc3)cc2)n1` [Compound 1, 4-(4-chlorophenoxy)phenyl-N-(2-methyl-4-pyrimidinyl)acetamide], for which the mortality at 400 ppm in experiment [1] is 100%; in experiment [2], 100%; in experiment [3], 100%; in experiment [4], 100%; in experiment [5], 0%; in experiment [7], 100%. In addition, the mortality at 400 ppm in experiment [8] was found to be 100%. Besides, the mortality at 24 µg/g in experiment [6] was 100%.
As for `O=C(Cc1ccc(OCC(F)(F)F)cc1)Nc1ccncn1` [Compound 28, 4-(2,2,2-trifluroethoxy)phenyl-N-(4-pyrimidinyl)acetamide], the mortality at 400 ppm in experiment [1] is 0%; in experiment [2], 0%; in experiment [3] it was 0%; in experiment [4], 100%; in experiment [7] it was 0%; in experiment [8], 0%. Moreover, in experiment [6], the mortality at 24 µg/g amounted to 0%.
Take `O=C(Cc1ccc(Oc2ccc(Cl)cc2)cc1)Nc1ccnc(C2CC2)n1` [Compound 29, 4-(4-chlorophenoxy)phenyl-N-(2-cyclopropyl-4-pyrimidinyl)acetamide]: the mortality at 400 ppm was determined as 100% in experiment [1]; 100% in experiment [2]; 0% in experiment [3]; 100% in experiment [4]; 100% in experiment [7]; 100% in experiment [8]. The mortality at 24 µg/g in experiment [6] stood at 0%.
For `CC(C)c1nccc(NC(=O)Cc2ccc(OCC(F)(F)F)cc2)n1` [Compound 30, 4-(2,2,2-trifluroethoxy)phenyl-N-(2-(1-methylethyl)-4-pyrimidinyl)acetamide], the mortality at 400 ppm was 100% in experiment [1]; 80% in experiment [2]; 100% in experiment [3]; 100% in experiment [4]; 100% in experiment [7]; 90% in experiment [8]. In experiment [6], the mortality at 24 µg/g turned out to be 100%.
Regarding `CC(C)c1nccc(NC(=O)Cc2ccc(Oc3ccc(F)cc3)cc2)n1` [Compound 31, 4-(4-fluorophenoxy)phenyl-N-(2-(1-methylethyl)-4-pyrimidinyl)acetamide], the mortality at 400 ppm in experiment [1] worked out at 100%; in experiment [2], 100%; in experiment [3], 0%; in experiment [4], 100%; in experiment [7] it was 100%; in experiment [8], 100%. Moreover, in experiment [6], the mortality at 24 µg/g came to 0%.
For the molecule `CCc1nccc(NC(=O)Cc2ccc(Oc3ncc(C(F)(F)F)cc3F)cc2)n1` [Compound 32, 4-(3-fluoro-5-trifluromethyl-2-pyridinyloxy)phenyl-N-(2-ethyl-4-pyrimidinyl)acetamide], the mortality at 400 ppm stood at 100% in experiment [1]; 60% in experiment [2]; 100% in experiment [3]; 100% in experiment [4]; 100% in experiment [7]; 100% in experiment [8]. Besides, in experiment [6], the mortality at 24 µg/g stood at 0%.
For `CCCCCCCCC(C)C(=O)Nc1ccnc(CC)n1` (stereo not drawn) [Compound 33, N-(2-ethyl-4-pyrimidinyl)-2 methyldecamide], the mortality at 400 ppm in experiment [1] was 40%; in experiment [2] it was 20%; in experiment [3], 0%; in experiment [4], 80%; in experiment [7] it was 0%; in experiment [8], 0%. Besides, the mortality at 24 µg/g in experiment [6] was 0%.
Regarding `CCCCCCCCCCCCCCCCCC(=O)Nc1ccnc(CC)n1` [Compound 34], the mortality at 400 ppm in experiment [1] worked out at 0%; in experiment [2] it was 20%; in experiment [3], 0%; in experiment [4], 0%; in experiment [7], 0%; in experiment [8], 0%. For the same molecule, the mortality at 24 µg/g in experiment [6] is 0%.
For `CCc1nccc(NC(=O)Cc2ccc(OCC(F)(F)F)cn2)n1` [Compound 35, 5-(2,2,2-trifluoromethoxy)-2-pyridinyl-N-(2-ethyl-4-pyrimidinyl)acetamide], the mortality at 400 ppm in experiment [1] stood at 100%; in experiment [2], 80%; in experiment [3] it was 100%; in experiment [4], 100%; in experiment [7], 100%; in experiment [8] it was 60%. Further, the mortality at 24 µg/g in experiment [6] came out at 100%.
With `CCc1nccc(NC(=O)Cc2ccc(Oc3ccc(S(C)(=O)=O)cn3)cc2)n1` [Compound 36, 4-(5-methylsulfonyl-2-pyridinyloxy)phenyl-N-(2-ethyl-4-pyrimidinyl)acetamide], the mortality at 400 ppm in experiment [1] amounted to 0%; in experiment [2], 40%; in experiment [3], 100%; in experiment [4], 40%; in experiment [7] it was 100%; in experiment [8] it was 100%. In addition, the mortality at 24 µg/g in experiment [6] came out at 0%.
`CCc1nccc(NC(=O)Cc2ccc(Oc3ccc(Cl)cn3)cc2)n1` [Compound 37, 4-(5-chloro-2-pyridinyloxy)phenyl-N-(2-ethyl-4-pyrimidinyl)acetamide]: the mortality at 400 ppm in experiment [1] amounted to 0%; in experiment [2] it was 100%; in experiment [3] it was 0%; in experiment [4], 0%; in experiment [7] it was 100%; in experiment [8] it was 100%. Also, in experiment [6], the mortality at 24 µg/g amounted to 0%.
As to `COCc1nccc(NC(=O)Cc2ccc(OCC(F)(F)F)cc2)n1` [Compound 38, 4-(2,2,2-trifluroethoxy)phenyl-N-(2-(methoxymethyl)-4-pyrimidinyl)acetamide], the mortality at 400 ppm in experiment [1], in experiment [2], in experiment [3], in experiment [4], in experiment [7] and in experiment [8] was 0% throughout. For the same molecule, in experiment [6], the mortality at 24 µg/g stood at 0%.
As to `COCc1nccc(NC(=O)Cc2ccc(Oc3ccc(F)cc3)cc2)n1` [Compound 39, 4-(4-fluorophenoxy)phenyl-N-(2-(methoxymethyl)-4-pyrimidinyl)acetamide], the mortality at 400 ppm in experiment [1], in experiment [2], in experiment [3], in experiment [4], in experiment [7] and in experiment [8] was 100% each time. Further, the mortality at 24 µg/g in experiment [6] is 0%.
As to `CCCCc1nccc(NC(=O)Cc2ccc(Oc3ccc(C(F)(F)F)cc3)cc2)n1` [Compound 65, 4-(4-trifluoromethylphenoxy)phenyl-N-(2-butyl-4-pyrimidinyl)acetamide], the mortality at 400 ppm in experiment [1] amounted to 100%; in experiment [2], 100%; in experiment [4], 100%; in experiment [5], 0%; in experiment [7], 100%; in experiment [8], 100%. Also, the mortality at 24 µg/g in experiment [6] was 0%.
For `O=C(Cc1ccc(Oc2ccc(C(F)(F)F)cc2)cc1)Nc1ccnc(C2CCC2)n1` [Compound 66, 4-(4-trifluoromethylphenoxy)phenyl-N-(2-cyclobutyl-4-pyrimidinyl)acetamide], the mortality at 400 ppm in experiment [1] is 100%; in experiment [2] it was 100%; in experiment [4] it was 100%; in experiment [5], 40%; in experiment [7], 100%; in experiment [8], 100%. Also, the mortality at 24 µg/g in experiment [6] is 100%.
As to `Cc1nccc(NC(=O)Cc2ccc(Oc3cccc(C(F)(F)F)c3)cc2)n1` [Compound 69, 4-(3-trifluoromethylphenoxy)phenyl-N-(2-methyl-4-pyrimidinyl)acetamide], the mortality at 400 ppm was determined as 0% in experiment [1]; 0% in experiment [2]; 0% in experiment [4]; 40% in experiment [5]; 80% in experiment [7]; 80% in experiment [8]. Besides, the mortality at 24 µg/g in experiment [6] was 0%.
Consider `CC(C)c1nccc(NC(=O)Cc2ccc(Oc3ccc(C(F)(F)F)cc3)cc2)n1` [Compound 72, 4-(4-trifluoromethylphenoxy)phenyl-N-(2-(1-methylethyl)-4-pyrimidinyl)acetamide], for which the mortality at 400 ppm was 100% in experiment [1]; 100% in experiment [2]; 100% in experiment [3]; 100% in experiment [4]; 0% in experiment [7]; 100% in experiment [8]. Also, the mortality at 24 µg/g in experiment [6] was 100%.
